Values after ≈ are worked out from the molar mass of the structure shown.
Tests used:
in vitro [1] = details: human, MRC5 SV2 cells
Description: Selectivity index, ratio of IC50 for human MRC5 SV2 cells to IC50 for Trypanosoma cruzi Tulahuen CL2 amastigotes infected in human MRC5 SV2 cells

Macrophage = assay: cells; details: Mus musculus, 72 h
Description: (§1) Cytotoxicity against mouse peritoneal Macrophage cells assessed as reduction in cell viability incubated for 3 days by fluorimetry

in vitro [2] = details: mouse, peritoneal macrophages
Description: as §1

in vitro [3] = details: dog, MDCK
Description: Apparent permeability across basolateral to apical side in MDCK cells

Leishmania infantum = assay: microbe, parasite or virus in culture; details: for IC50: MHOM/MA(BE)/67/ITMAP263, 120 h; for IC90: MHOM/MA(BE)/67/ITMAP263, in Mus musculus, 120 h
Description: Antileishmanial activity against amastigote stage of Leishmania infantum MHOM/MA(BE)/67/ITMAP263 infected in mouse peritoneal macrophage assessed as parasite growth inhibition incubated for 5 days by Giemsa staining based assay

Trypanosoma brucei = assay: microbe, parasite or virus in culture; details: Squib 427, 72 h
Description: Antitrypanosomal activity against Trypanosoma brucei Squib 427 assessed as reduction in parasite growth incubated for 72 hrs by resazurin dye based fluorimetric analysis

[4] = tested on: Trypanosoma brucei rhodesiense; assay: microbe, parasite or virus in culture; details: STIB900, 72 h
Description: Antiprotozoal activity against Trypanosoma brucei rhodesiense STIB900 trypomastigotes incubated for 72 hrs by resazurin dye based fluorimetric analysis

in vitro [5] = details: dog, MDCK; remark: listed apart in the source
in vitro [6] = details: human, MRC5 SV2 cells; remark: listed apart in the source
Description: (§2) Cytotoxicity against human MRC5 SV2 cells assessed as reduction in cell viability incubated for 3 days by fluorimetry

Trypanosoma cruzi = assay: microbe, parasite or virus in culture; details: Tulahuen CL2, MRC-5 SV2, 168 h
Description: Antitrypanosomal activity against Trypanosoma cruzi Tulahuen CL2 amastigotes infected in human MRC5 SV2 cells incubated for 7 days by chlorophenol red beta-D-galactopyranoside substrate based spectrophotometric assay

physchem [7] = details: PBS buffer, pH 7.4
Description: Kinetic solubility of compound in PBS buffer at pH 7.4

in vitro [8] = details: human, liver microsomes
Description: Metabolic stability in human liver microsomes assessed as intrinsic clearance at 0.5 uM incubated for 30 mins by LC-MS/MS analysis

in vitro [9] = details: mouse, liver microsomes
Description: Metabolic stability in mouse liver microsomes assessed as intrinsic clearance at 0.5 uM incubated for 30 mins by LC-MS/MS analysis

physchem [10] = details: PBS buffer, pH 2
Description: Kinetic solubility of compound in PBS buffer at pH 2

cells = details: Homo sapiens, MRC-5 SV2, 72 h
Description: as §2

in vitro [11] = details: PAMPA
Description: Effective permeability of compound by PAMPA assay

in vitro [12] = details: human, MRC5 SV2 cells; remark: listed apart in the source
Description: Selectivity index, ratio of IC50 for human MRC5 SV2 cells to IC50 for Trypanosoma brucei rhodesiense STIB900 trypomastigotes

in vitro [13] = details: mouse, liver microsomes; remark: listed apart in the source
Description: Metabolic stability in mouse liver microsomes assessed as fraction unbound at 0.5 uM incubated for 30 mins by LC-MS/MS analysis

in vitro [14] = details: human, MRC5 SV2 cells; remark: listed apart in the source
Description: Selectivity index, ratio of IC50 for human MRC5 SV2 cells to IC50 for Trypanosoma brucei Squib 427

in vitro [15] = details: mouse, peritoneal macrophages; remark: listed apart in the source
Description: Selectivity index, ratio of IC50 for mouse peritoneal macrophage to IC50 for Leishmania infantum MHOM/MA(BE)/67/ITMAP263 infected in mouse peritoneal macrophage

physchem [16] = details: buffer, pH 7.4
Description: Lipophilicity, logD of compound at pH 7.4 by HPLC analysis

Row | Structure (SMILES) | selectivity ratio (in vitro [1]) | IC50 (Macrophage) [µM] | IC90 at 72 h (in vitro [2]) [µM] | IC50 (Leishmania infantum) [µM] | IC90 (Leishmania infantum) [µM] | IC50 (Trypanosoma brucei) [µM] | IC90 (Trypanosoma brucei) [µM] | IC50 [4] [µM] | IC90 [4] [µM] | IC90 at 72 h (in vitro [6]) [µM] | IC50 (Trypanosoma cruzi) [µM] | IC90 (Trypanosoma cruzi) [µM] | CLint scaled at 0.5 h, 0.5 µM (in vitro [8]) [mL/min/kg] | microsomal CLint at 0.5 h, 0.5 µM (in vitro [8]) [µL/min/mg] | CLint scaled at 0.5 h, 0.5 µM (in vitro [9]) [mL/min/kg] | microsomal CLint at 0.5 h, 0.5 µM (in vitro [9]) [µL/min/mg] | IC50 (cells) [µM] | Papp (in vitro [11]) [×10⁻⁶ cm/s] | selectivity ratio (in vitro [12]) | selectivity ratio (in vitro [15]) | other results
1 | CC(C)c1cc(C(=O)N2CCCC(c3cc4ncccc4[nH]3)C2)on1 (configuration not stated) | 8.25 to 22.1 | 32 to 64 | 32 to 64 | 32 to 64 | 32 to 64 | 32 to 55.6 | 32 to 64 | 32 to 38.1 | 32 to 58.7 | 64 | 2.9 to 3.88 | 7.61 to 24.3 | 67.8 | 37 | 1600 | 560 | 64 | – | – | – | Papp B→A (in vitro [3]): 33.2 ×10⁻⁶ cm/s; Papp A→B (in vitro [5]): 29.4 ×10⁻⁶ cm/s; solubility kinetic (physchem [7]): 60.4 µg/mL (≈ 178 µM); solubility kinetic (physchem [10]): > 67.3 µg/mL
2 | CN(C(=O)c1ccccc1)c1cccc(-c2cc3ncccc3[nH]2)c1 | 3.59 | 45.3 | 59.7 | 37.4 | 60.5 | 31.9 | 59.1 | 9.02 | 35.5 | 60.9 | 7.25 | 64 | 83.7 | 50.6 | 5840 | 1200 | 26.1 | 2.78 | 2.89 | 0.707 | fraction unbound at 0.5 h, 0.5 µM (in vitro [13]): 0.653; selectivity ratio (in vitro [14]): 0.849; logD (physchem [16]): 3.3
3 | COc1ccc(OC)c2[nH]c(C(=O)N3CCCC(c4cc5ncccc5[nH]4)C3)cc12 (configuration not stated) | 18.9 | 32 | 32 | 9.59 | 32 | 20.5 | 29.9 | 9.55 | 25.6 | 29.9 | 1.2 | 6.67 | 235 | – | 9620 | – | 22.6 | – | 2.36 | 2.35 | –
4 | O=C(c1cc(C(F)(F)F)no1)N1CCCC(c2cc3nc(NCc4ccccc4)ccc3[nH]2)C1 (configuration not stated) | 3.23 | 22.6 | 29.9 | 6.34 | 23.6 | 7.87 | 14.8 | 4.97 | 13 | 13.6 | 2.14 | 64 | 1870 | 149 | – | – | 6.91 | 0.239 | 1.4 | 1.07 | fraction unbound at 0.5 h, 0.5 µM (in vitro [13]): 0.0857; selectivity ratio (in vitro [14]): 0.894; logD (physchem [16]): 4.4
5 | CC(C)c1cc(C(=O)N2CC=C(c3cc4ncccc4[nH]3)CC2)on1 | 30.1 to 31.8 | 64 | 64 | 27.9 to 41.6 | – | 36.7 to 38.7 | 58.8 to 63.5 | 7.97 to 15.5 | 36.4 to 49.5 | 64 | 2.01 to 2.12 | 3.79 to 15.4 | 119 | 23 to 59.2 | 2650 | 398 to 446 | 64 | 1.54 | 4.14 to 8.02 | 2.32 | Papp B→A (in vitro [3]): 15.3 ×10⁻⁶ cm/s; Papp A→B (in vitro [5]): 14.6 ×10⁻⁶ cm/s; selectivity ratio (in vitro [14]): 1.74; solubility kinetic (physchem [7]): 10.4 µg/mL (≈ 31 µM); solubility kinetic (physchem [10]): > 67.3 µg/mL; logD (physchem [16]): 3.23
6 | O=C(c1ccc(F)cc1)N1CCCC(c2cc3ncc(Cl)cc3[nH]2)C1 (configuration not stated) | 1.2 | 64 | 64 | 18.5 | 50.4 | 16.3 | 32.4 | 5.82 | 13.9 | 64 | 28.8 | 59.5 | 62.2 | 44.6 | 970 | 235 | 34.9 | 10.6 | 5.94 | 1.9 | fraction unbound at 0.5 h, 0.5 µM (in vitro [13]): 0.775; selectivity ratio (in vitro [14]): 2.16; logD (physchem [16]): 3.82
7 | O=C(c1ccccc1)N1CCCC(c2cn3nc(Cl)ccc3n2)C1 (configuration not stated) | – | 64 | 64 | 64 | 64 | 47.7 | 64 | 7.81 | 14.5 | 64 | 64 | 64 | > 61.7 | 56.9 | > 772 | 242 | 64 | 23.6 | 8.19 | – | selectivity ratio (in vitro [14]): 1.37; logD (physchem [16]): 3.18
8 | O=C(c1cc(C2CC2)no1)N1CCCC(c2cc3ncccc3[nH]2)C1 (configuration not stated) | 15.8 | 64 | 64 | 37.1 | 64 | 64 | 64 | 41.9 | 64 | 64 | 4.05 | 13.8 | 39.5 | 33.8 | 1610 | 467 | 64 | 3.17 | 1.56 | 1.73 | fraction unbound at 0.5 h, 0.5 µM (in vitro [13]): 0.926; logD (physchem [16]): 2.86

— ChEMBL document CHEMBL4342426, “Structure-activity relationship of 4-azaindole-2-piperidine derivatives as agents against Trypanosoma cruzi” (Bioorg Med Chem Lett, 2020)
